Like-named read-outs stand apart in the source and are kept apart here.
Experiments:
[1] = test system: Bacillus stearothermophilus spores; details: 3 g of 57% hydrogen peroxide, 5 Minutes Vaporization
Description: The Petri dish contained a biological challenge consisting of 2.2×10^6 Bacillus stearothermophilus spores on a stainless steel coupon. A coupon was also placed in the center of each of the three lumens. The coupon in the Petri dish was used as a test of the effectiveness of the method at sterilizing the exterior of a device, and the coupons in the lumens were a test of the effectiveness of sterilizing the interior of the lumens. In Example 5, the Petri dish and three lumens were placed in a tray with 40 medical devices in the sterilization chamber, the chamber was evacuated to 0.4 torr, 3 g of 57% hydrogen peroxide were vaporized into the chamber over 5 minutes, and the chamber was vented to 1 atmosphere. The hydrogen peroxide was then allowed to diffuse for a total of 20 minutes, either at 1 atmosphere pressure or 4 torr. In the first experiment in Table 7, the sterilization chamber was vented to atmosphere after the hydrogen peroxide was vaporized into the sterilization chamber, and the hydrogen peroxide vapor was allowed to diffuse at 1 atmosphere for 19.5 minutes. […] The first experiment was the control experiment for the second experiment. In the second experiment in Table 7, the sterilization chamber was vented to atmosphere for 0.5 minutes, then the pressure in the sterilization chamber was reduced to 4 torr and controlled at that pressure for a total of 19.5 minutes.

[2] = test system: Bacillus stearothermophilus spores
Description: The Petri dish contained a biological challenge consisting of 2.2×10^6 Bacillus stearothermophilus spores on a stainless steel coupon. A coupon was also placed in the center of each of the three lumens. The coupon in the Petri dish was used as a test of the effectiveness of the method at sterilizing the exterior of a device, and the coupons in the lumens were a test of the effectiveness of sterilizing the interior of the lumens. In the following experiment, the condensed hydrogen peroxide was revaporized multiple times. The following procedure was followed in the experiment. A tray containing the Petri dish and three lumens with inoculated blades was placed in a 173 L sterilization chamber, as in the other examples, and the chamber was evacuated to 0.4 torr. The experiment with multiple revaporizations was conducted as follows: 1. 3 grams of 59% hydrogen peroxide were introduced into the vaporizer. 2. The hydrogen peroxide was vaporized and introduced into the sterilization chamber over a period of 5 minutes. 3. The pressure was reduced to 4 torr for 5 minutes to revaporize the hydrogen peroxide. 4. The sterilization chamber was vented to 1 atmosphere pressure for 0.5 minutes to condense the vapor again. 5. The pressure in the sterilization chamber was reduced to 4 torr and maintained at a constant pressure of 4 torr for 14.5 minutes. The total cycle lasted 25 minutes.

[3] = test system: Bacillus stearothermophilus spores; details: 3 g of 59 wt % hydrogen peroxide, 5 Minutes Vaporization and 20 Minutes Diffusion
Description: (§1) The Petri dish contained a biological challenge consisting of 2.2×10^6 Bacillus stearothermophilus spores on a stainless steel coupon. A coupon was also placed in the center of each of the three lumens. The coupon in the Petri dish was used as a test of the effectiveness of the method at sterilizing the exterior of a device, and the coupons in the lumens were a test of the effectiveness of sterilizing the interior of the lumens.
In Example 3, the pressure in the sterilization chamber was reduced to 0.4 torr, a total of 3 g of 59 wt % hydrogen peroxide was placed in the vaporizer, and the hydrogen peroxide was vaporized and diffused into the sterilization chamber for 5 minutes. The hydrogen peroxide was then allowed to diffuse at various pressures for 20 minutes. The pressure in the sterilization chamber was at constant pressure by controlling the pressure with an automatic valve between the sterilization chamber and the vacuum pump.
The experiment on the first line of Table 5 is the control experiment, in which the hydrogen peroxide was vaporized into the chamber and allowed to diffuse with the valve between the sterilization chamber and the vacuum pump closed. The pressure in the sterilization chamber was 9.5 torr, which is higher than the vapor pressure of 43 mole % hydrogen peroxide/water solution at 20° C., the approximate temperature of the equipment in the sterilization chamber, as shown in Table 2.
In the experiments described on the following lines of Table 5, the 3 grams of 59 wt % hydrogen peroxide was vaporized for 5 minutes.
The pressure in the sterilization chamber was then reduced, and the condensed vapor was vaporized and allowed to diffuse at constant pressure for 20 minutes. The interior of the sterilization chamber was maintained at a constant pressure by the automatic valve between the sterilization chamber and the vacuum pump. The constant pressure in the sterilization chamber ranged from 7 torr to 1 torr.
In the examples on the following lines, the same procedure was followed, vaporizing 3 g of 59 wt % hydrogen peroxide for 5 minutes and diffusing at constant pressure for 20 minutes. The constant diffusion pressure ranged from 1 to 6 torr.

[4] = test system: Bacillus stearothermophilus spores; details: 3 g of 59 wt % hydrogen peroxide, 5 Minutes Vaporization and 20 Minutes Diffusion; remark: listed apart in the source
Method: as §1
In this example, the procedure of Example 3 was carried out, but the valve between the sterilization chamber and the vacuum pump was closed after the desired pressure was reached. In Example 3, constant pressure was maintained throughout the 20 minutes of diffusion.
The Petri dish and three lumens were placed in a tray in a 173 L sterilization chamber, and the chamber was evacuated to 0.4 torr. A total of 3 g of 59 wt % hydrogen peroxide was vaporized in the vaporizer and diffused into the sterilization chamber over a period of 5 minutes, and the pressure in the sterilization chamber was reduced to the desired value, and the valve between the sterilization chamber and the vacuum pump was closed. The hydrogen peroxide was then allowed to diffuse in the sterilization chamber for 20 minutes.

[5] = test system: Bacillus stearothermophilus spores; details: 3 g of 59% hydrogen peroxide, 5 Minutes Vaporization
Description: as §1, with “the lumens. In Example 2, the test of Example 1 with 3 g of 59% hydrogen peroxide was repeated with the addition of 20 minutes exposure time to the hydrogen peroxide vapor.” for “the lumens.”

[6] = test system: Bacillus stearothermophilus spores; details: 5 minutes vaporization, no revaporization
Description: In Example 1, the following items were placed in a CSR-wrapped tray in a 173 L sterilization chamber: Open Petri dish 2.48 mm id×50 cm Teflon lumen 2.48 mm id×75 cm Teflon lumen 2.48 mm id×100 cm Teflon lumen 40 pieces of medical devices The Petri dish contained a biological challenge consisting of 2.2×10^6 Bacillus stearothermophilus spores on a stainless steel coupon. A coupon was also placed in the center of each of the three lumens. The coupon in the Petri dish was used as a test of the effectiveness of the method at sterilizing the exterior of a device, and the coupons in the lumens were a test of the effectiveness of sterilizing the interior of the lumens. Three experiments were performed in which 1, 2, and 3 g of 59 wt % hydrogen peroxide were introduced into the vaporizer after the chamber was evacuated to 0.4 torr and allowed to vaporize and diffuse into the chamber for 5 minutes.

[7] = 0.5 Minutes Vent Plus 19.5 Minutes Reducing and Controlling at 4 Torr
[8] = 0.5 Minutes Vent Plus 19.5 Minutes at 1 Atm.
[9] = 3 grams of 59% hydrogen peroxide, Cycle with Two-Vaporization Process: 5 minutes vaporization, 4 torr 5 minutes, vent 1 atmosphere 0.5 minutes, 4 torr 14.5 minutes
[10] = control: 5 Minutes Vaporization plus 20 Minutes Diffusion at 1 atm.
[11] = Reducing and controlling at 1 torr
[12] = Reducing and controlling at 2 torr
[13] = Reducing and controlling at 3 torr
[14] = Reducing and controlling at 4 torr
[15] = Reducing and controlling at 5 torr
[16] = Reducing and controlling at 6 torr
[17] = Reducing and controlling at 7 torr
[18] = Without pump-down, final pressure about 9.5 torr
[19] = Valve closed at 1 torr, final pressure about 1.7 torr
[20] = Valve closed at 2 torr, final pressure about 2.8 torr

Compound: OO [hydrogen peroxide]
- Sterility Results In 2.48 mm × 50 cm lumen [1, 7]: −
- Sterility Results In 2.48 × 75 cm Lumen [1, 7]: −
- Sterility Results In 2.48 × 100 cm lumen [1, 7]: −
- Sterility Results In Open Petri Dish [1, 7]: −
- Sterility Results In 2.48 mm × 50 cm lumen [1, 8]: −
- Sterility Results In 2.48 × 75 cm Lumen [1, 8]: +
- Sterility Results In 2.48 × 100 cm lumen [1, 8]: +
- Sterility Results In Open Petri Dish [1, 8]: −
- Sterility Results In 2.48 mm × 50 cm lumen [2, 9]: −
- Sterility Results In 2.48 mm × 75 cm lumen [2, 9]: −
- Sterility Results In 2.48 mm × 100 cm lumen [2, 9]: −
- Sterility Results In Open Petri Dish [2, 9]: −
- Sterility Results In 2.48 mm × 50 cm lumen [2, 10]: −
- Sterility Results In 2.48 mm × 75 cm lumen [2, 10]: +
- Sterility Results In 2.48 mm × 100 cm lumen [2, 10]: +
- Sterility Results In Open Petri Dish [2, 10]: −
- Sterility Results In 2.48 mm × 50 cm lumen [3, 11]: −
- Sterility Results In 2.48 mm × 75 cm lumen [3, 11]: +
- Sterility Results In 2.48 mm × 100 cm lumen [3, 11]: +
- Sterility Results In Open Petri Dish [3, 11]: −
- Sterility Results In 2.48 mm × 50 cm lumen [3, 12]: −
- Sterility Results In 2.48 mm × 75 cm lumen [3, 12]: −
- Sterility Results In 2.48 mm × 100 cm lumen [3, 12]: +
- Sterility Results In Open Petri Dish [3, 12]: −
- Sterility Results In 2.48 mm × 50 cm lumen [3, 13]: −
- Sterility Results In 2.48 mm × 75 cm lumen [3, 13]: −
- Sterility Results In 2.48 mm × 100 cm lumen [3, 13]: −
- Sterility Results In Open Petri Dish [3, 13]: −
- Sterility Results In 2.48 mm × 50 cm lumen [3, 14]: −
- Sterility Results In 2.48 mm × 75 cm lumen [3, 14]: −
- Sterility Results In 2.48 mm × 100 cm lumen [3, 14]: −
- Sterility Results In Open Petri Dish [3, 14]: −
- Sterility Results In 2.48 mm × 50 cm lumen [3, 15]: −
- Sterility Results In 2.48 mm × 75 cm lumen [3, 15]: −
- Sterility Results In 2.48 mm × 100 cm lumen [3, 15]: −
- Sterility Results In Open Petri Dish [3, 15]: −
- Sterility Results In 2.48 mm × 50 cm lumen [3, 16]: −
- Sterility Results In 2.48 mm × 75 cm lumen [3, 16]: −
- Sterility Results In 2.48 mm × 100 cm lumen [3, 16]: −
- Sterility Results In Open Petri Dish [3, 16]: −
- Sterility Results In 2.48 mm × 50 cm lumen [3, 17]: −
- Sterility Results In 2.48 mm × 75 cm lumen [3, 17]: −
- Sterility Results In 2.48 mm × 100 cm lumen [3, 17]: +
- Sterility Results In Open Petri Dish [3, 17]: −
- Sterility Results In 2.48 mm × 50 cm lumen [3, 18]: −
- Sterility Results In 2.48 mm × 75 cm lumen [3, 18]: +
- Sterility Results In 2.48 mm × 100 cm lumen [3, 18]: +
- Sterility Results In Open Petri Dish [3, 18]: −
- Sterility Results In 2.48 mm × 50 cm lumen [4, 19]: −
- Sterility Results In 2.48 mm × 75 cm lumen [4, 19]: −
- Sterility Results In 2.48 mm × 100 cm lumen [4, 19]: +
- Sterility Results In Open Petri Dish [4, 19]: −
- Sterility Results In 2.48 mm × 50 cm lumen [4, 20]: −
- Sterility Results In 2.48 mm × 75 cm lumen [4, 20]: −
- Sterility Results In 2.48 mm × 100 cm lumen [4, 20]: −
- Sterility Results In Open Petri Dish [4, 20]: −
- Sterility Results In 2.48 mm × 50 cm lumen ([5]; Diffusion Time 0 Minute): −
- Sterility Results In 2.48 mm × 75 cm lumen ([5]; Diffusion Time 0 Minute): +
- Sterility Results In 2.48 × 100 cm lumen ([5]; Diffusion Time 0 Minute): +
- Sterility Results In Open Petri Dish ([5]; Diffusion Time 0 Minute): −
- Sterility Results In 2.48 mm × 50 cm lumen ([5]; Diffusion Time 20 Minutes): −
- Sterility Results In 2.48 mm × 75 cm lumen ([5]; Diffusion Time 20 Minutes): +
- Sterility Results In 2.48 × 100 cm lumen ([5]; Diffusion Time 20 Minutes): +
- Sterility Results In Open Petri Dish ([5]; Diffusion Time 20 Minutes): −
- Sterility Results In 2.48 mm × 50 cm Teflon lumen ([6]; 1 g 59% hydrogen peroxide): −
- Sterility Results In 2.48 mm × 75 cm Teflon lumen ([6]; 1 g 59% hydrogen peroxide): +
- Sterility Results In 2.48 × 100 cm Teflon lumen ([6]; 1 g 59% hydrogen peroxide): +
- Sterility Results In Open Petri Dish ([6]; 1 g 59% hydrogen peroxide): −
- Sterility Results In 2.48 mm × 50 cm Teflon lumen ([6]; 2 g 59% hydrogen peroxide): −
- Sterility Results In 2.48 mm × 75 cm Teflon lumen ([6]; 2 g 59% hydrogen peroxide): +
- Sterility Results In 2.48 × 100 cm Teflon lumen ([6]; 2 g 59% hydrogen peroxide): +
- Sterility Results In Open Petri Dish ([6]; 2 g 59% hydrogen peroxide): −
- Sterility Results In 2.48 mm × 50 cm Teflon lumen ([6]; 3 g 59% hydrogen peroxide): −
- Sterility Results In 2.48 mm × 75 cm Teflon lumen ([6]; 3 g 59% hydrogen peroxide): +
- Sterility Results In 2.48 × 100 cm Teflon lumen ([6]; 3 g 59% hydrogen peroxide): +
- Sterility Results In Open Petri Dish ([6]; 3 g 59% hydrogen peroxide): −

Source: patent US6451254B1, “Sterilization of diffusion-restricted area by revaporizing the condensed vapor” (Ethicon, Inc., priority 1998, dated 2002)
